Patent publication US20170029839A1, “METHOD FOR IMPROVING CROP PRODUCTIVITY” (priority 2013, published 2017)

Columns and labels:
[1] = test system: enzyme encoded by SDG8i (SL-UGT); assay: UGT enzyme assay (coupled pyruvate kinase/lactate dehydrogenase, NADH absorbance at 340 nm) with N. benthamiana leaf protein extract expressing SDG8i; type: biochemical, Sporobolus stapfianus
Experimental: UGT was produced in N. benthamiana leaf tissue by transient transfection using a viral-based MagnICON vector system (Icon Genetics GmbH, Halle/Salle, Germany).
Briefly, the UGT coding sequence was amplified from the SDG8i cDNA (Le et al., 2007) and ligated into the MagnICON plasmid. The plasmid was then cultured in Escherichia coli DH5α (ATCC Catalog No 53868) and electroporated into Agrobacterium tumefaciens LBA4404). Subsequently, Nicotiana benthamiana leaves were covered in aluminium foil for 3 days before being co-infiltrated with the plasmid and the apoplast-targeting and intergrase modules of the MagnICON system (Marillonnet et al. 2005). Leaves were then harvested 5 days after the co-infiltration and homogenised in ice-cold protein extraction buffer. Following removal of the insoluble material by centrifugation at 13,000 rpm at 4° C. for 5 minutes, protein assays were carried out with Bio-Rad Protein Assay Dye (Bio-Rad Laboratories Inc, Hercules, Calif., United States of America) using bovine serum albumin (BSA) as reference. Protein extracts were analysed by SDS-PAGE using the standard methods described by Sambrook et al. (1989).
UGT activity was measured using a coupled assay with pyruvate kinase and lactate dehydrogenase with the reaction rate monitored by the change in NADH absorbance at 340 nm (Jackson et al. 2001). Activity in millikatals kg^−1 was calculated using the extinction coefficient […] for NADH. The background activity of the extracts, monitored by the measurement of the rate without substrate addition, was subtracted from the reaction rate.
To investigate the catalytic function of the enzyme encoded by the SDG8i cDNA, the glucosyltransferase activity of N. benthamiana leaf protein extracts infiltrated with a CaMV 35S promoter driven SDG8i construct was tested against a number of substrates and compared with activity in extracts infiltrated with a vector-only control. The assay utilised a linked enzymic reaction as described in the Materials and Methods. […]

[2] = test system: Orobanche seeds; assay: Orobanche germination assay; type: in vivo; settings: 0.6 ml aqueous solution 0.0001 mg/1, 7 days at 18-20° C. in the dark; seeds with emerged radicle; water control 11%
Experimental: Orobanche seeds were surface sterilised with 2% sodium hypochlorite containing 0.02% (v/v) of polysorbate 20 surfactant (Tween 20™; Sigma-Aldrich Co LLC, St Louis, Mo., United States of America) for 5 min then rinsed (5×) with sterile ddH2O and dried for 30 min in a laminar air flow cabinet. Subsequently, between 50 and 100 seeds were spread on a sterile […] glass fibre disk and placed in petri dishes (9 cm diameter) lined with filter paper wetted with 3 mL of ddH2O. 1 ml of gibberellic acid (GA3) (30 mg/L) was applied to the seeds and the petri dishes then sealed with parafilm and incubated at 18-20° C. in the dark for preconditioning. After 7 days, surface-sterilised seeds of Arabidopsis W/T, SDG8i transgenics, sorghum and & stapfianus were placed on 5 cm glass microfiber disks and incubated on ¼ MS media with 0.5% sugar and 0.8% agar. For controls, 0.6 ml aqueous solution of synthetic strigolactone analog GR24 (Chiralix B.V., Toernooiveld 1006525 EC Nijmegen, The Netherlands) (0.0001 mg/1) or sterile water was applied to petri dishes with preconditioned Orobanche seeds. The plates were then resealed with parafilm and wrapped with foil and incubated at 18-20° C. for 7 days for germination. Orobanche seed germination was determined under a stereoscopic microscope by counting the number of seeds having an emerged radicle.

[3] = test system: SDG8i promoter-driven GUS reporter (prSDG8i-GUS); assay: Activation of GUS expression driven by prSDG8i in onion epidermal peels; type: cell-based; settings: onion peels containing prSDG8i-GUS construct by itself, MJ added to suspension
Source text: The promoter sequence (1660 nt) of SDG8i was placed upstream of the GUS reporter gene in a construct designated prSDG8i-GUS. This construct was transiently co-transformed into onion epidermal peels along with the pMDC32:7y or pMDC32:10y constructs which contained either SDG10y or SDG7y under the transcriptional regulation of the CaMV 35S promoter which is constitutively active in onion cells. The formation of a blue precipitate indicates activation of the SDG8i promoter-driven GUS reporter gene by the SDG10y or SDG7y transcription factor constructs.
Agrobacterium-mediated transient transformation was achieved by immersing onion peels in the Agrobacterium suspensions containing these constructs in 10 mM MES buffer (pH 5.5) and 200 μM acetosyringone at 28° C. in the dark for 2/3 days. A 35S:GUS control construct was included in these experiments and the hormone methyl jasmonate (MJ) was also added to some suspensions. After 2 days, the onion peels were soaked in a GUS staining solution and left at 28° C. in the dark. The onion peels were examined every 2 hours to monitor the formation of blue precipitate.

With `CC1=CC(O/C=C2/C(=O)OC3c4ccccc4CC23)OC1=O` (centres unmarked) [GR24] the Km ([1]; GR24 as substrate of SDG8i extract, FIG. 1B) was 349 µM, the Vmax ([1]; GR24 as substrate of SDG8i extract, FIG. 1B, method: activity calculated in millikatals kg^-1) was 5.67 and the glycosylation activity ([1]; SDG8i extract versus vector-only control, background endogenous NADH oxidase subtracted, FIG. 1A) was “substantial glycosylation activity”. It also gave an Orobanche seed germination [2] of 95%.

In the case of `CC/C=C\CC1C(=O)CCC1CC(=O)OC` (centres unmarked) [MJ, methyl jasmonate], the GUS activity [3] is reported as “elevated”.
